In general, melting point refers to the temperature of the solid-liquid transition.

Experimental findings from patent US11185074B2, “Microbiocidal quinoline (thio)carboxamide derivatives” (SYNGENTA PARTICIPATIONS AG, priority 2017, dated 2021) are described below.

Structures are written as SMILES.

In data set [1] the test system is Magnaporthe grisea (Pyricularia oryzae). As to the kind of experiment: microbe, parasite or virus in culture. Format: cell-based. The conditions noted are these: 72 h, read-out: control of Magnaporthe grisea.
Data set [2] deals with Fusarium culmorum. As to the kind of experiment: microbe, parasite or virus in culture. Format: cell-based. The settings on record: read-out: control of Fusarium culmorum.
The test system of data set [3] is Glomerella lagenarium (Colletotrichum lagenarium). Briefly: Glomerella lagenarium (Colletotrichum lagenarium) / liquid culture (anthracnose). Format: cell-based. The conditions noted are these: Colletotrichum orbiculare; 20 ppm; liquid culture, inhibition of growth photometrically 3-4 days after application; compared to untreated control; read-out: control of Glomerella lagenarium.

Data set [4] relates to Monographella nivalis (Microdochium nivale). As to the kind of experiment: Monographella nivalis (Microdochium nivale) / liquid culture (foot rot cereals). Format: cell-based. The settings on record: 96 h, inhibition of growth photometrically 4-5 days after application, compared to untreated control.
Data set [5] concerns Botryotinia fuckeliana (Botrytis cinerea). Briefly: Botryotinia fuckeliana (Botrytis cinerea) / liquid culture (gray mould). Format: cell-based. The conditions noted are these: 72 h, 20 ppm, liquid culture, inhibition of growth photometrically 3-4 days after application, compared to untreated control, read-out: control of Botryotinia fuckeliana.
For data set [6], the system named is Fusarium culmorum. Briefly: whole plant or invertebrate. The settings on record: in Triticum aestivum, read-out: control of Fusarium culmorum. Format: in vivo, Fusarium culmorum on wheat spikelets cv. Monsun.

`CC1(CC(C)(CC(F)(F)F)NC(=O)c2cnc3c(F)cccc3c2)CC1` (centres unmarked) [E-10, 8-fluoro-N-[3,3,3-trifluoro-1-methyl-1-[(1-methylcyclopropyl)methyl]propyl]quinoline-3-carboxamide] yielded a melting point of 126 to 128 °C. Besides, in data set [1], the inhibition of growth at 20 ppm was not below 80%. Moreover, the inhibition of growth at 20 ppm in data set [2] was not below 80%. The inhibition of growth at 20 ppm in data set [3] is not below 80%. Also, the inhibition of growth at 20 ppm in data set [4] is not below 80%. In data set [5], the inhibition of growth at 20 ppm is not below 80%.

The compound `CC(C)=CCC(C)(CC(C)C)NC(=O)c1cnc2c(F)cccc2c1` (centres unmarked) [E-11] returned a melting point of 94 to 96 °C. In addition, in data set [1], the inhibition of growth at 20 ppm was not below 80%. Further, the inhibition of growth at 20 ppm in data set [2] is not below 80%. The inhibition of growth at 20 ppm in data set [3] was not below 80%. The compound also displayed an inhibition of growth at 20 ppm in data set [4] not below 80%. Also, the inhibition of growth at 20 ppm in data set [5] is not below 80%.

Regarding `CC(Cc1ccccc1)C(C)(C)NC(=O)c1cnc2c(F)cccc2c1` (centres unmarked) [E-16], the inhibition of growth at 20 ppm in data set [2], in data set [3], in data set [4] and in data set [5] was not below 80% each time. In data set [6], the pest or weed control at 200 ppm was not below 80%.

Regarding `O=C(NC(CC1CC1)CC1CC1)c1cnc2c(F)cccc2c1` [E-24], the melting point was 141 to 143 °C. Also, the inhibition of growth at 20 ppm in data set [1] was not below 80%. The inhibition of growth at 20 ppm in data set [2] is not below 80%. Besides, the inhibition of growth at 20 ppm in data set [3] is not below 80%. Moreover, the inhibition of growth at 20 ppm in data set [5] is not below 80%.

As for `CC(CC1CC1)(CC1CC1)NC(=O)c1cnc2ccccc2c1` [E-26], the melting point was in the range of 92 to 94 °C. The inhibition of growth at 20 ppm in data set [2] was not below 80%. The pest or weed control at 200 ppm in data set [6] was not below 80%. The inhibition of growth at 20 ppm in data set [3] is not below 80%. The compound further returned an inhibition of growth at 20 ppm in data set [4] not below 80%. For the same compound, the inhibition of growth at 20 ppm in data set [5] is not below 80%.

`C/C(=C/c1ccccc1)CC(C)(C)NC(=O)c1cnc2c(F)cccc2c1C` [E-28] gave a melting point of 96 to 98 °C. In addition, the inhibition of growth at 20 ppm in data set [2] is not below 80%. Besides, the inhibition of growth at 20 ppm in data set [5] was not below 80%.

`O=C(NC(CC1CC1)CC1CC1)c1cnc2ccccc2c1` [E-29] returned a melting point of 123 to 125 °C. Further, in data set [2], the inhibition of growth at 20 ppm is not below 80%. Moreover, in data set [3], the inhibition of growth at 20 ppm is not below 80%. Also, the inhibition of growth at 20 ppm in data set [5] was not below 80%.

`COc1ccc(CCC(C)(C#N)NC(=O)c2cnc3c(F)cccc3c2)cc1` (centres unmarked) [E-30] showed a melting point of 175 to 176 °C. Besides, the inhibition of growth at 20 ppm in data set [2] was not below 80%. Besides, in data set [3], the inhibition of growth at 20 ppm was not below 80%.

`C/C(=C/c1ccccc1)CC(C)(C)NC(=O)c1cnc2c(F)cccc2c1` [E-31] yielded a melting point of 127 to 129 °C. Moreover, the inhibition of growth at 20 ppm in data set [4] is not below 80%. For the same compound, in data set [5], the inhibition of growth at 20 ppm is not below 80%.

On to `C=CCC(C)(C)NC(=O)c1cnc2c(F)c(F)ccc2c1` [E-36], for which the melting point is 116 to 119 °C. For the same compound, in data set [2], the inhibition of growth at 20 ppm was not below 80%. Moreover, in data set [3], the inhibition of growth at 20 ppm was not below 80%. In addition, the inhibition of growth at 20 ppm in data set [5] was not below 80%.

Take `Cc1cccc2cc(C(=O)NC(C)CC3CC=CCC3)cnc12` (centres unmarked) [E-50]: the inhibition of growth at 20 ppm in data set [2], in data set [3], in data set [4] and in data set [5] was not below 80% throughout. In data set [6], the pest or weed control at 200 ppm is not below 80%.

Regarding `CCCC(C)CC(C)(CC(F)(F)F)NC(=O)c1cnc2c(F)cccc2c1` (centres unmarked) [E-52], the inhibition of growth at 20 ppm in data set [1], in data set [2], in data set [3], in data set [4] and in data set [5] was not below 80% each time. Besides, the pest or weed control at 200 ppm in data set [6] was not below 80%.
